Source: US11053170B2, “Liquid urease inhibitor formulations” (YARA INTERNATIONAL ASA, priority 2016, dated 2021)

Key:
rat = conditions: cited from earlier work
urease = conditions: on urea; Rheinland soil (pH 6.5) and Palencia soil (pH 7.5); 25° C., 14 days
Procedure: Erlenmeyer flasks were filled with 300 g air-dried, arable topsoil, irrigated to a desired % of its WHC (Water Holding Capacity), incubated for 6 days prior to the application of the fertilizers. Fertilizers (2.5-3.15 mm granule size) at a concentration of 100 mg N (Nitrogen)/flask were applied over the soil surface. Boric acid traps were installed to catch volatile ammonia from the air above the topsoil, and the Erlenmeyer flasks were installed in a Phytotron chamber at 25° C. at windy but not dry conditions.

[1] = Stability of nBTPT on urea granules (coated); format: physicochemical; conditions: 500 ppm, bagged, room temperature
Procedure: In a next step, the nBTPT material was slowly added. A residence time of 10 minutes was applied and the rotating speed of the drum was consequently the same in each experiment. Larger scale experiments with amounts up to 40 kg of fertilizer material were performed in a concrete mixer.
The samples were stored under several conditions, dependent on the type of samples: • Bagged at room temperature (20° C.) or in a Nissen hut (an unconditioned bulk storage hall) • Open to air in a Nissen hut
Typically, a day/night cycle is generated in the Nissen hut, with temperature fluctuations between 0 to 42° C. and fluctuations of relative humidity between 20 and 90%, which can be compared with real life storage in silos.

SMILES	toxicity oral rat LD50 (rat) [mg/kg]	urease inhibitory activity and volatilization control (cumulated volatile ammonia losses) (urease)	nBTPT degradation in 155 days [1]
CN1CCCC1 [NMP, N-methylpyrrolidine]	3914	–	–
CCCCNP(N)(N)=S [nBTPT, N-(n-butyl) thiophosphoric triamide]	–	no statistically significant difference	about 75%
